Values quoted from earlier work in US6838451B1, “Methods and compositions for the prevention and treatment of inflammation, osteoarthritis, and other degenerative joint diseases” (Pharmanutrients, priority 2000, dated 2005).

Tests used:
[1] = dietary supplement

excreted as exhaled carbon dioxide (of the absorbed glucosamine) | excreted in the urine (of the absorbed glucosamine) | remaining in the tissues (of the absorbed glucosamine) | absorbed from the small intestine (sulfate form) | Molecule | toxicity [1]
65% | 25% | 10% | over 90% | N[C@H]1C(O)O[C@H](CO)[C@@H](O)[C@@H]1O (some centres unmarked) [glucosamine] | 
 |  |  |  | conjugated linoleic acid | nontoxic
